Results: PMC11649784, “Re-design and evaluation of diclofenac-based carborane-substituted prodrugs and their anti-cancer potential” (Scientific Reports, 2024)

Experiments:
[1] = test system: MC38 cells; experiment: MTT viability assay, MC38; format: cell-based, murine; conditions: 72 h, mean±SD; read-out: IC50 [μM] (n = 3) MC38 MTT
Method: (§1) In a preliminary test, the stability of all compounds dissolved in the cell medium (c = 100 μM, T = [drawing 47] ) for 72 h was validated by HPLC (see Supporting Information). Cell lines were incubated with the respective compounds in a concentration range of 1.56–100 μM for 72 h, and cell viability was measured using 3-(4,5-dimethylthiazol-2-yl)-2,5-diphenyltetrazolium bromide (MTT) and crystal violet (CV) assays. […] As MTT tests gave inconsistent results, possibly due to interference of the compound with mitochondrial respiration, for the further evaluation only the CV results are considered[97],[98].
(§2) The biological study was performed on a murine colon adenocarcinoma cell line (MC38), two human colorectal carcinoma cell lines (HCT116 and HT29), and a human fetal lung fibroblast cell line (MRC-5). All cell lines are commercially available and were obtained from the American Type Culture Collection (ATCC). The human cell lines were kept in HEPES-buffered RPMI-1640 medium supplemented with 10 [drawing 141] heat-inactivated FCS, 2 mM L-glutamine, 0.01 [drawing 142] sodium pyruvate, penicillin (100 units mL^−1), and, streptomycin ( [drawing 143] mL^-1). The MC38 cell line was maintained in DMEM medium additionally supplemented with 1 [drawing 144] non-essential amino acids. Cells were grown at [drawing 145] in a humidified atmosphere with 5 [drawing 146] [drawing 147] . Peritoneal exudate cells (PECs) were isolated from healthy C57BL/6 mice (males, n = 3, 3 months old, weight 22–25 g) by performing an ice-cold PBS peritoneal lavage. Mice were sacrificed by cervical dislocation. Cells were cultivated for 4 h when nonadherent population was removed by washing in PBS, and additionally cultivated overnight in HEPES-buffered RPMI-1640 medium supplemented with 5 [drawing 148] heat-inactivated FCS before treatment with experimental drugs. Animal handling and protocol for isolation of PECs were performed according to European Union rules, and the ARRIVE guidelines 2.0.
(§3) For the viability tests, MC38, HCT116, and HT29 cells were seeded in 96-well plates at a density of 2 [drawing 149] 103, 5 [drawing 150] 103, and 6 [drawing 151] 10^3 cells/well, respectively. To determine whether the drug affected the viability of healthy, non-malignant cells, MRC-5 and PECs were seeded in 96-well plates at a density of 8 [drawing 152] 103 and 2 [drawing 153] 10^5 cells/well, respectively. For the flow cytometric analyses, MC38 cells were seeded in 6-well plates at 5 [drawing 154] 10^4 cells/well. For morphological assessment of nuclei and the detection of autophagy, MC38 cells were seeded in 2-well chamber slides at 1.5 [drawing 155] 10^4 cells/well.
(§4) After 72 h, cell viability was determined using MTT and CV tests. First, the supernatant from the wells was discarded and the cells were incubated with an MTT solution (0.5 mg mL^−1). After half an hour, the purple formazan crystals formed were dissolved in DMSO. For CV staining of the cells, the cells were fixed with 4 [drawing 157] PFA for 10 min and then stained with a 0.02 [drawing 158] CV solution for 15 min, all at room temperature (RT). The cells were then washed with tap water, air-dried and the dye was dissolved in 33 [drawing 159] acetic acid. For both viability tests, the absorbance of the developed colors was measured using an automated microplate reader at 570 nm with a reference wavelength of 670 nm. The results were expressed as a percentage of the control values of the untreated cells, which were arbitrarily set at 100 [drawing 160] . IC50 values, defined as 50 [drawing 161] inhibitory concentration, were calculated using a four-parameter logistic function and presented as mean±SD. All biological experiments were performed in triplicates. To evaluate the nature of the detected autophagy, a combined treatment with compound 3 and the autophagy inhibitors chloroquine (Chlq) and 3-methyladenine (3-MA) was carried out. […] After 72 h, cell viability was determined by CV assay.

[2] = test system: HCT116 cells; experiment: Crystal violet (CV) viability assay, HCT116; format: cell-based, human; conditions: 72 h, mean±SD; read-out: IC50 [μM] (n = 3) HCT116 CV
Method: as §1, §2, §3, §4

[3] = test system: HT29 cells; experiment: MTT viability assay, HT29; format: cell-based, human; conditions: 72 h, mean±SD; read-out: IC50 [μM] (n = 3) HT29 MTT
Method: as §1, §2, §3, §4

[4] = test system: MC38 cells; experiment: AnnV-FITC/PI double staining, flow cytometry; format: cell-based, murine; conditions: IC50 concentration, 72 h
Method: For all flow cytometric analyses, MC38 cells were seeded overnight and then treated with the IC50 concentration of compound 3 for 72 h. The cells were harvested, washed, and stained according to the manufacturer’s instructions for each method. To determine whether the compound induces apoptosis, cells were double stained with AnnV-FITC and PI (15 μg mL^–1) for 15 min at RT in the dark. To detect caspase activity, cells were stained with the FITC-conjugated caspase inhibitor ApoStat for 30 min at [drawing 162] . To detect cell proliferation, MC38 cells were stained with CFSE (1 μM) for 10 min at [drawing 163] prior to seeding and then treated as previously described. To detect intracellular production of Reactive oxygen/nitrogen Species (ROS/RNS), MC38 cells were prestained with DHR 123 (1 [drawing 164] M) for 20 min at [drawing 165] , then seeded and exposed to an IC50 concentration of compound 3. After 72 h incubation, all samples were washed, resuspended in PBS and fluorescence intensity was analyzed using a CytoFLEX [drawing 166] flow cytometer (Beckman Coulter, Pasadena, CA, USA), while the data obtained was evaluated using the [drawing 167] software program.

[5] = test system: MC38 cells; experiment: PI staining of fixed cells, fluorescence microscopy; format: cell-based, murine; conditions: IC50 concentration, 72 h
Method: (§5) For morphological assessment of cell nuclei, MC38 cells were seeded overnight in 2-well chamber slides and then treated with the IC50 concentration of compound 3 for 72 h. At the end of the incubation period, cells were fixed with 4 [drawing 168] PFA for 15 min at RT. Staining of cells was performed with PI solution (0.1 [drawing 169] Triton X-100, 0.5 M EDTA pH 8, 50 μg mL^− 1 RNase, and 50 [drawing 170] mL^− 1 PI - final concentrations in PBS) for 1–2 min at RT. After washing in PBS, the cells were mounted in a fluorescence microscopy medium (Fluoromount- [drawing 171] , eBioscience, San Diego, CA, USA). The slides were analyzed with a ZeissAxio Observer Z1 inverted fluorescence microscope (Carl Zeiss AG, Oberkochen, Germany) at 400 [drawing 172] magnification. For the detection of autophagosomes, AO staining of cells seeded in 2-well chamber slides was applied. […] The dye was then removed, the cells were rinsed with PBS and immediately evaluated via fluorescence microscopy at 400 [drawing 175] magnification using the Leica DM4 B microscope equipped with a DFC7000 T camera (Leica Microsystems CMS GmbH, Wetzlar, Germany).

[6] = test system: MC38 cells; experiment: Acridine orange staining for autophagosomes; format: cell-based, murine; conditions: IC50 concentration, 72 h
Method: as §5

[7] = Stability in solution, air and moisture; conditions: storage

## 1-[2-(7,8-dicarba-nido-undecaborate)]- [drawing 126] H-indolium-2-amine [compound 3]
[1]
  IC50: 7.9 ± 0.2 µM
[2]
  IC50: 11.5 ± 1 µM
[3]
  IC50: 17 ± 1.6 µM
[4]
  apoptosis (AnnV-FITC/PI), in words: moderate apoptotic cell accumulation
[5]
  nuclear morphology (PI staining): moderate involvement of apoptotic cells
[6]
  autophagosomes in the cytoplasm (acridine orange): intensified presence of autophagosomes
[7]
  stability in air and moisture: stable in air and moisture
